Patent publication US11253524B2 (Gilead Sciences, Inc., priority 2018, dated 2022)

How the values were obtained:
[1] = In vivo BIC metabolism, plasma profile after oral [14C]BIC, rat; parameters: species or system Wistar Han Rat; conditions: rats, 0 to 168 hours post dose, ND = not detected
From the text: (§1) Metabolic pathways included hydroxylation, oxidative defluorination, direct glucuronidation, and oxidation followed by phase II conjugation. In the monkey, BIC was metabolized through the oxidative pathways to a greater extent compared to rat and human.

[2] = biological target: T1, OATP1B1 (Homo sapiens, UniProt Q9Y6L6); test: OATP1B1 inhibition assay using Fluo-3 as probe substrate, CHO cells; assay type: cell-based; parameters: expressed in transfected cells; host or cells: CHO cells; conditions: for IC50: OATP1B1, Fluo-3; for inhibition at 1 h, 100 µM: human, CHO cells transfected with human OATP1B1, pH 7.4, probe Fluo-3 (2 μM), OATP1B1, Fluo-3, at 100 μM, read-out: Maximum inhibition at highest test conc. (% of control)
T1 sequence (Q9Y6L6 1-691): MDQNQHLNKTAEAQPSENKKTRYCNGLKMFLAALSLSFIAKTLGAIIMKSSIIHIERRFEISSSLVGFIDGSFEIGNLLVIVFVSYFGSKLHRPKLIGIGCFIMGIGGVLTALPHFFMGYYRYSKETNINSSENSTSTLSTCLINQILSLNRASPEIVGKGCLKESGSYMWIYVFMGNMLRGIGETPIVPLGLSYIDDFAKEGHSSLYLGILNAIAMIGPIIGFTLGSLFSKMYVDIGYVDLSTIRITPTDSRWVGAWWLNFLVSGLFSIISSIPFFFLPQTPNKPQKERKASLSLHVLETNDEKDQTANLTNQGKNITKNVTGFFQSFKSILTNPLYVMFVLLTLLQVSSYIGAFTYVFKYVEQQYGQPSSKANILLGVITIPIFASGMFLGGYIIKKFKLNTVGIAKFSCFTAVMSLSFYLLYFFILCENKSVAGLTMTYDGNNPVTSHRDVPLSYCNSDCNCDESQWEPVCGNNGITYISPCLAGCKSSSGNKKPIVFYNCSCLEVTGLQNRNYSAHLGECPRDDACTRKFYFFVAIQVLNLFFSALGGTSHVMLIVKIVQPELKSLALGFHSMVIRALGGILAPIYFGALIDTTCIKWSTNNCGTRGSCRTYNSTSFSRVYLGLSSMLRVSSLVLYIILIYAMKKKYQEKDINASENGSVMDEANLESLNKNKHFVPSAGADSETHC
Experimental: Chinese Hamster Ovary (CHO) cells, either wild type or transfected with the genes encoding human OATP1B1 or OATP1B3, were maintained in Dulbecco's Modification of Eagle's Medium (DMEM) containing 1,000 mg/L D-glucose, L-glutamine, 25 mM HEPES buffer, and 110 mg/L sodium pyruvate, 1% Pen/Strep, 10% fetal bovine serum, 0.05 mg/mL L-proline and 0.5 mg/mL of geneticin G-418. Cells were maintained in incubators set at 37° C., 90% humidity and 5% CO2. OATP1B1 or OATP1B3 overexpressing CHO cells were seeded in BioCoat Poly-D-Lysine coated 96 well black cell culture plates with clear bottoms at a density of 1×10^5 cells/well. Sodium butyrate (10 mM) was added to the OATP1B1 and OATP1B3 cells to increase the protein expression level, and the cells were grown to confluence overnight. The assay buffer contained 142 mM NaCl, 5 mM KCl, 1 mM KH2PO4, 1.2 mM MgSO4, 1.5 mM CaCl2, 5 mM Glucose and 12.5 mM HEPES (pH 7.4). After removal of the media and before adding test compounds, the cells were washed twice with 37° C. assay buffer followed by a 0.5 h pre-incubation with assay buffer. Test compounds were serially diluted in DMSO at 250-fold of final test concentrations to create the compound spiking solutions. Compounds were then spiked into assay buffer containing 2 μM Fluo-3 and incubated with cells for 1 h. Following removal of assay buffer containing Fluo-3 and test compound, cells were washed 3 times with 200 μl of ice cold assay buffer and then lysed at room temperature for 15 minutes in a lysis buffer containing […] in a 1 mM CaCl2 solution. Substrate accumulations were determined for Fluo-3 fluorescence at an excitation of 485 nm and emission of 530 nm.
Percent inhibition was calculated according to the following equation: % inhibition=[1−{[OATP]i−[WT]ni}/{[OATP]ni−[WT]ni}]*100 where: [OATP]i represent the substrate accumulation in the presence of test compound for either OATP1B1, OATP1B3, or OATP2B1 cells; [OATP]ni represents the substrate accumulation in the absence of test compound for either OATP1B1, OATP1B3, or OATP2B1 cells, respectively; and [WT]ni represents the substrate accumulation in the absence of test compound for wild type cells or Mock cells, respectively. IC50 Determination in Transporter Assays
IC50 was determined according to the procedures described in Example 5. […] Results are reported as NIO (no interaction observed).

[3] = biological target: T2, multidrug-resistance protein 2 (MRP2; ABCC2) (Homo sapiens, UniProt Q92887); test: biochemical; assay type: biochemical
T2 construct: host or cells: membrane vesicle preparations
Experimental: (§2) Cells and experimental conditions for the transporter inhibition assays are summarized below in Table 7. […] M15, M20, and M23 were prepared according to the procedures described herein. All other materials were purchased by SOLVO Biotechnology and experiments were conducted according to SOLVO Standard Operating Procedures (SOPs) of its certified ISO 9001:2008 system. Lot and product information was recorded by SOLVO Biotechnology.
(§3) Test compounds and positive control was incubated with membrane vesicle preparations (total protein: 50 μg/well) and the model substrate in the absence or presence of ATP. Reaction mixtures were preincubated for 15 minutes at 37° C. Reactions were started by the addition of 25 μL of 12 mM MgATP or AMP assay buffer (for background controls) preincubated separately. Reactions were stopped after 5 min by the addition of 200 μL of ice-cold washing buffer and immediate filtration via glass fiber filters mounted to a 96-well plate (filter plate). The filters were washed, dried and the amount of substrate inside the filtered vesicles determined by liquid scintillation. A positive control inhibitor was tested in parallel. Control membranes lacking transporter expression were used as negative control. All assays were performed in duplicate.
(§4) Fractional transport activities were calculated from the following equation: Activity %=(A−B)/(C−D)×100 where A is translocated amount of substrate in the presence of TA and ATP, B is translocated amount of substrate in the presence of TA, C is translocated amount of substrate in the presence of solvent and ATP, and D is translocated amount of substrate in the presence of solvent. IC50 Determination in Transporter Assays
(§5) IC50 is defined as the test article concentration needed to inhibit the maximal transporter specific transport by 50%. IC50 values were calculated using non-linear fitting of % inhibition versus concentration to a sigmoidal curve with a variable Hill Coefficient using GraphPad Prism 5 (GraphPad Software Inc., San Diego, Calif.). If the % inhibition was less than 50% at the highest concentration tested, the IC50 was not determined. No inhibition observed (NIO) is reported for relative inhibition results <20% and no concentration dependent transport observed up to the highest concentration tested.

[4] = biological target: T3, MRP2 (ABCC2) (Homo sapiens, UniProt Q92887); test: in vitro; assay type: biochemical; conditions: human
T3 construct: host or cells: membrane vesicle preparations
Experimental: as §2, §3, §4, §5

[5] = In vivo BIC metabolism, plasma profile after oral [14C]BIC, monkey; parameters: species or system Cynomolgus Monkey; conditions: monkeys, 0 to 72 hours post dose, ND = not detected
From the text: as §1

T3 sequence (Q92887 whole entry): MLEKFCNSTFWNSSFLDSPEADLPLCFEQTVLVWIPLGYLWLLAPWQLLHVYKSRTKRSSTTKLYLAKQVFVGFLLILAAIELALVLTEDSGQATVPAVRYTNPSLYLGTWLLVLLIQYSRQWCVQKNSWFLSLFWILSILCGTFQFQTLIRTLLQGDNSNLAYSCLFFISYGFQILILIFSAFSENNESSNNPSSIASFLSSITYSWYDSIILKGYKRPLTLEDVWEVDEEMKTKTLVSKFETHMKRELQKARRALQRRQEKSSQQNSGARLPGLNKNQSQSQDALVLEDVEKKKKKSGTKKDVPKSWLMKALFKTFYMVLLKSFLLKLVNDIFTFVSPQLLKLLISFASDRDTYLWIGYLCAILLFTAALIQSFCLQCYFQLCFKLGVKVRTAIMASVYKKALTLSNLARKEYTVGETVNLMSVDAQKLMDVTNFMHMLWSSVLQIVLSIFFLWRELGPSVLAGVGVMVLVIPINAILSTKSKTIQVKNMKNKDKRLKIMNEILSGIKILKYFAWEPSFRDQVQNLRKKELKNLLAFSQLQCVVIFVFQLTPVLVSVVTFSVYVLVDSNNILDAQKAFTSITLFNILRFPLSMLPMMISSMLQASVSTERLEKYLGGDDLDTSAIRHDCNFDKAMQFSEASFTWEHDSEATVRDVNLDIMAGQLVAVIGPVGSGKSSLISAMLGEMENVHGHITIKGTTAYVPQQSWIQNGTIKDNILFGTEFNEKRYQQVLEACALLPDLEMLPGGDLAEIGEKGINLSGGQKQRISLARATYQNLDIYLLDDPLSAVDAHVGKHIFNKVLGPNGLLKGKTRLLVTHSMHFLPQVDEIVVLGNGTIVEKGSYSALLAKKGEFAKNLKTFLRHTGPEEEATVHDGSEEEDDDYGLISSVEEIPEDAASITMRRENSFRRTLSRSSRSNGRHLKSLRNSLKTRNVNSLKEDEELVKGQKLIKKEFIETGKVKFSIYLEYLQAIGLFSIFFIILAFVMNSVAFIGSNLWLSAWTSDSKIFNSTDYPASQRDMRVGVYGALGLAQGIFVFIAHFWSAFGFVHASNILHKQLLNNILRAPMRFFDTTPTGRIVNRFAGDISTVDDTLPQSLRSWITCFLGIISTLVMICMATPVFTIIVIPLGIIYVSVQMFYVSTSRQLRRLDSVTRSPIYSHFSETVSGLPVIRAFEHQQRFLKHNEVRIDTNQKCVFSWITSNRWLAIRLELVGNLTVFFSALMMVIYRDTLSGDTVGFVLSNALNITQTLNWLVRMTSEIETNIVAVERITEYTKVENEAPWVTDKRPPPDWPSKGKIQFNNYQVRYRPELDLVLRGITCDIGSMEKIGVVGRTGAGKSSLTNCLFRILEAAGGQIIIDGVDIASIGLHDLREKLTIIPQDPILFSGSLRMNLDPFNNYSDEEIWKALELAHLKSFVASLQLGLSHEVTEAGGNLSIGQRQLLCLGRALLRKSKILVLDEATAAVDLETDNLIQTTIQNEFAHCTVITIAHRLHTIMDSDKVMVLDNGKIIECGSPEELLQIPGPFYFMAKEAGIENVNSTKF
T2 sequence (Q92887 whole entry): as above

SMILES	% of Total Radioactivity in AUC Pooled Plasma [1] [%]	IC50 [2] [µM]	inhibition at 1 h, 100 µM [2] [%]	IC50 [3] [µM]	inhibition at 5 min, 300 µM [4] [%]	% of Total Radioactivity in AUC Pooled Plasma [5] [%]	inhibition at 5 min, 100 µM [4] [%]	IC50 (μM) [3]
O=C(NCc1c(F)cc(F)c(OS(=O)(=O)O)c1F)c1cn2c(c(O)c1=O)C(=O)N1C(C2)O[C@@H]2CC[C@H]1C2 (stereo partly shown) [Metabolite M20]	11.3	90.1	54	45	98	0.77		
O=C(NCc1c(F)cc(F)c(O)c1F)c1cn2c(c(O)c1=O)C(=O)N1[C@H]3CC[C@H](C3)O[C@@H]1C2 [Metabolite M23]	2.36	99.9	51	> 100			43	
O=C(NCc1c(F)cc(F)cc1F)c1cn2c(c(O[C@@H]3O[C@H](C(=O)O)[C@@H](O)[C@H](O)[C@H]3O)c1=O)C(=O)N1[C@H]3CC[C@H](C3)O[C@@H]1C2 [Metabolite M15]		> 100	39	256	53	0.55		
O=C(NCc1c(F)cc(F)cc1F)c1cn2c(c(O)c1=O)C(=O)N1[C@H]3CC[C@H](C3)O[C@@H]1C2 [BIC, bictegravir, reference compound]	76.5					80.2		NIO
